Source: patent publication US20050234030A1, “Modulators of CRTH2, COX-2 and FAAH” (priority 2004, published 2005)

Structure (SMILES)	melting point
COc1ccc2c(c1)c(CC(=O)O)c(C)n2C(=O)C1CCCCC1 [[1-(cyclohexylcarbonyl)-5-methoxy-2-methyl-1H-indol-3-yl]acetic acid]	129 °C
COc1cc2c(CC(=O)O)c(C)n(C(=O)C3CCCCC3)c2cc1F [[1-(cyclohexylcarbonyl)-6-fluoro-5-methoxy-2-methyl-1H-indol-3-yl]acetic acid]	104 °C
Cc1c(CC(=O)O)c2cc(O)ccc2n1C(=O)N1CCCCC1 [[5-hydroxy-2-methyl-1-(piperidin-1-ylcarbonyl)-1H-indol-3-yl]acetic acid]	235 °C

The remaining lines, values ahead:

melting point	Structure (SMILES)
219 °C	Cc1c(CC(=O)O)c2cc(O)c(F)cc2n1C(=O)c1cccs1 [[6-fluoro-5-hydroxy-2-methyl-1-(thien-2-ylcarbonyl)-1H-indol-3-yl] acetic acid]
137 °C	COc1cc2c(CC(=O)O)c(C)n(C(=O)c3cccs3)c2cc1F [[6-fluoro-5-methoxy-2-methyl-1-(thien-2-ylcarbonyl)-1H-indol-3-yl]acetic acid]
